The compounds below were run against Jak2 (human Jak2 kinase domain, amino acids 808-1132) (Homo sapiens (Human), UniProt O60674) (assay: Jak2 inhibition assay (Omnia kinase assay)). Conditions: read-out: Jak2 Enzyme (% inhibition at 1000 nM), Table 1; 1000 nM test compound.
Assay type: biochemical

Jak2 (human Jak2 kinase domain, amino acids 808-1132), sequence (O60674 808-1132): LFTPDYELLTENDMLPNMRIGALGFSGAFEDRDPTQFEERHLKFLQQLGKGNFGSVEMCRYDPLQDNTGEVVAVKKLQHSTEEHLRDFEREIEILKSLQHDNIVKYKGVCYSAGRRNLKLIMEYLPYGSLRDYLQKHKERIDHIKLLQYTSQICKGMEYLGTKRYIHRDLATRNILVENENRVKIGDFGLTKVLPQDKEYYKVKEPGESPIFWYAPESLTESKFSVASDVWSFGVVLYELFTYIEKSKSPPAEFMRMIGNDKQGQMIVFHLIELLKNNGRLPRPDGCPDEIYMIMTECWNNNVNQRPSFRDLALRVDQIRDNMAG

Point of comparison: `CC(C)NC(=O)c1cnn2ccc(N3[C@@H](c4cncc(F)c4)CC[C@@]3(C)CO)nc12` [Example 219, 5-((2 S, 5R)-5-(5-fluoropyridin-3-yl)-2-(hydroxymethyl)-2-methylpyrrolidin-1-yl)-N-isopropylpyrazolo[1,5-a]pyrimidine-3-carboxamide], inhibition at 1 µM 25.5%. Against it:
- C[C@@H](NC(=O)c1cnn2ccc(N3[C@H](CO)CC[C@@H]3c3cncc(F)c3)nc12)C(F)(F)F [Example 212, 5-((2R,5S)-2-(5-fluoropyridin-3-yl)-5-(hydroxymethyl)pyrrolidin-1-yl)-N—((R)-1,1,1-trifluoropropan-2-yl)pyrazolo[1,5-a]pyrimidine-3-carboxamide] — lower, 14.2%
- C[C@H](NC(=O)c1cnn2ccc(N3[C@H](CO)CC[C@@H]3c3cncc(F)c3)nc12)C(F)(F)F [Example 213, 5-((2R,5S)-2-(5-fluoropyridin-3-yl)-5-(hydroxymethyl)pyrrolidin-1-yl)-N—((S)-1,1,1-trifluoropropan-2-yl)pyrazolo[1,5-a]pyrimidine-3-carboxamide] — lower, 21.9%
- CC1(NC(=O)c2cnn3ccc(N4[C@H](CO)CC[C@@H]4c4cncc(F)c4)nc23)CC1 [Example 214, 5-((2R,5S)-2-(5-fluoropyridin-3-yl)-5-(hydroxymethyl)pyrrolidin-1-yl)-N-(1-methylcyclopropyl)pyrazolo[1,5-a]pyrimidine-3-carboxamide] — higher, 29.7%
- CC(C)NC(=O)c1cnn2ccc(N3[C@H](CO)CC[C@@H]3c3cncc(F)c3)nc12 [Example 215, 5-((2R,5S)-2-(5-fluoropyridin-3-yl)-5-(hydroxymethyl)pyrrolidin-1-yl)-N-isopropylpyrazolo[1,5-a]pyrimidine-3-carboxamide] — higher, 28.3%
- C[C@H](NC(=O)c1cnn2ccc(N3C[C@@H](O)C[C@@H]3c3cccc(F)c3)nc12)C(F)(F)F [Example 216, 5-((2R,4S)-2-(3-fluorophenyl)-4-hydroxypyrrolidin-1-yl)-N—((S)-1,1,1-trifluoropropan-2-yl)pyrazolo[1,5-a]pyrimidine-3-carboxamide] — higher, 54%
- CC(C)NC(=O)c1cnn2ccc(N3C[C@@H](O)C[C@@H]3c3cccc(F)c3)nc12 [Example 217, 5-((2R,4S)-2-(3-fluorophenyl)-4-hydroxypyrrolidin-1-yl)-N-isopropylpyrazolo[1,5-a]pyrimidine-3-carboxamide] — higher, 61.7%
- CNC(=O)c1cnn2ccc(N3C[C@@H](O)C[C@@H]3c3cccc(F)c3)nc12 [Example 218, 5-((2R,4S)-2-(3-fluorophenyl)-4-hydroxypyrrolidin-1-yl)-N-methylpyrazolo[1,5-a]pyrimidine-3-carboxamide] — lower, 24.6%
- C[C@H](NC(=O)c1cnn2ccc(N3[C@@H](c4cncc(F)c4)CC[C@@]3(C)CO)nc12)C(F)(F)F [Example 220, 5-((2S,5R)-5-(5-fluoropyridin-3-yl)-2-(hydroxymethyl)-2-methylpyrrolidin-1-yl)-N—((S)-1,1,1-trifluoropropan-2-yl)pyrazolo[1,5-a]pyrimidine-3-carboxamide] — lower, 15.2%
- Nc1ncc(F)cc1[C@H]1CCCN1c1ccn2ncc(C(=O)N3CCC3)c2n1 [Example 221, (R)-(5-(2-(2-amino-5-fluoropyridin-3-yl)pyrrolidin-1-yl)pyrazolo[1,5-a]pyrimidin-3-yl)(azetidin-1-yl)methanone] — lower, -1.2%
- O=C(NOCCO)c1cnn2ccc(N3CCC[C@@H]3c3cc(F)cnc3Cl)nc12 [Example 225, (R)-5-(2-(2-chloro-5-fluoropyridin-3-yl)pyrrolidin-1-yl)-N-(2-hydroxyethoxy)pyrazolo[1,5-a]pyrimidine-3-carboxamide] — lower, 2.7%
- Cn1cc(F)cc([C@H]2CCCN2c2ccn3ncc(C(=O)NC(C)(C)C)c3n2)c1=O [Example 226, (R)—N-tert-butyl-5-(2-(5-fluoro-1-methyl-2-oxo-1,2-dihydropyridin-3-yl)pyrrolidin-1-yl)pyrazolo[1,5-a]pyrimidine-3-carboxamide] — higher, 100%
- CC(C)NC(=O)c1cnn2ccc(N3CCC[C@@H]3c3cc(F)cn(C)c3=O)nc12 [Example 227, (R)-5-(2-(5-fluoro-1-methyl-2-oxo-1,2-dihydropyridin-3-yl)pyrrolidin-1-yl)-N-isopropylpyrazolo[1,5-a]pyrimidine-3-carboxamide] — higher, 62.8%
- Cn1cc(F)cc([C@H]2CCCN2c2ccn3ncc(C(=O)NC4CCC4)c3n2)c1=O [Example 230, (R)-N-cyclobutyl-5-(2-(5-fluoro-1-methyl-2-oxo-1,2-dihydropyridin-3-yl)pyrrolidin-1-yl)pyrazolo[1,5-a]pyrimidine-3-carboxamide] — higher, 53.3%
- Cn1cc(F)cc([C@H]2CCCN2c2ccn3ncc(C(=O)Nc4cccnc4)c3n2)c1=O [Example 231, (R)-5-(2-(5-fluoro-1-methyl-2-oxo-1,2-dihydropyridin-3-yl)pyrrolidin-1-yl)-N-(pyridin-3-yl)pyrazolo[1,5-a]pyrimidine-3-carboxamide] — higher, 26.6%
- Cn1cc(F)cc([C@H]2CCCN2c2ccn3ncc(C(=O)NCC4CC4)c3n2)c1=O [Example 232, (R)-N-(cyclopropylmethyl)-5-(2-(5-fluoro-1-methyl-oxo-1,2-dihydropyridin-3-yl)pyrrolidin-1-yl)pyrazolo[1,5-a]pyrimidine-3-carboxamide] — higher, 31.9%
- Cn1cc(F)cc([C@H]2CCCN2c2ccn3ncc(C(=O)N[C@H](CO)C(C)(C)C)c3n2)c1=O [Example 233, 5-((R)-2-(5-fluoro-1-methyl-2-oxo-1,2-dihydropyridin-3-yl)pyrrolidin-1-yl)-N-((S)-1-hydroxy-3,3-dimethylbutan-2-yl)pyrazolo[1,5-a]pyrimidine-3-carboxamide] — lower, 6.7%
- Cn1cc(F)cc([C@H]2CCCN2c2ccn3ncc(C(=O)N[C@@H]4CCCC[C@H]4O)c3n2)c1=O [Example 234, 5-((R)-2-(5-fluoro-1-methyl-2-oxo-1,2-dihydropyridin-3-yl)pyrrolidin-1-yl)-N-((1R,2R)-2-hydroxycyclohexyl)pyrazolo[1,5-a]pyrimidine-3-carboxamide] — lower, 5.3%
- C[C@@H](NC(=O)c1cnn2ccc(N3CCC[C@@H]3c3cc(F)cn(C)c3=O)nc12)C1CC1 [Example 235, N-((R)-1-cyclopropylethyl)-5-((R)-2-(5-fluoro-1-methyl-2-oxo-1,2-dihydropyridin-3-yl)pyrrolidin-1-yl)pyrazolo[1,5-a]pyrimidine-3-carboxamide] — higher, 73.1%
- C[C@H](NC(=O)c1cnn2ccc(N3CCC[C@@H]3c3cc(F)cn(C)c3=O)nc12)C1CC1 [Example 236, N-((S)-1-cyclopropylethyl)-5-((R)-2-(5-fluoro-1-methyl-2-oxo-1,2-dihydropyridin-3-yl)pyrrolidin-1-yl)pyrazolo[1,5-a]pyrimidine-3-carboxamide] — higher, 69.1%
- Cn1cc(F)cc([C@H]2CCCN2c2ccn3ncc(C(=O)NC4(C)CC4)c3n2)c1=O [Example 237, (R)-5-(2-(5-fluoro-1-methyl-2-oxo-1,2-dihydropyridin-3-yl)pyrrolidin-1-yl)-N-(1-methylcyclopropyl)pyrazolo[1,5-a]pyrimidine-3-carboxamide] — higher, 51.9%
